The structures appear in SMILES notation.

The first series deals with weiblichen und männlichen Mäusen. The series is described as follows: Acute toxicity in mice after a single oral dose. The following applies: single dose of 1 000 mg/kg p.o., observation at least 7 days. Format: in vivo. The text has this: Bei weiblichen und männlichen Mäusen eigener Zucht mit dem Gewicht von 20-26 g wurde die toxische Wirkung der Substanzen nach oraler Gabe (Suspension in 1%iger Methylcellulose) einer einmaligen Dosis bei einer Nachbeobachtungszeit von mindestens 7 Tagen geprüft. Die nachfolgende Tabelle enthält die gefundenen Werte: […]
The molecule `CN(C)c1ccc(Br)cc1C(=O)NCCc1ccc(C(=O)O)cc1` [B, 4-[2-(5-Brom-2-dimethylamino-benzoylamino)-äthyl]benzoesäure] yielded a Tieren gestorben of 0 von 5.

With `COC(=O)c1ccc(CCNC(=O)c2cc(Cl)ccc2N2CC(C)CC(C)C2)cc1` (centres unmarked) [H, 4-[2-(5-Chlor-2-(3,5-dimethyl-piperidino)-benzoylamino)-äthy]benzoesäure-methylester], the Tieren gestorben is 0 von 6.

Molecule `O=C(O)c1ccc(CCNC(=O)c2cc(Cl)ccc2N2CCCCCC2)cc1` [O, 4-[2-(5-Chlor-2-hexamethylenimino-benzoylamino)-äthyl]-benzoesäure] came in with a Tieren gestorben of 0 von 10.

As to `CC1CN(c2ccc(Cl)cc2C(=O)NCCc2ccc(C(=O)O)cc2)CC(C)O1` (centres unmarked) [T, 4-[-(5-Chlor-2-(2,6-dimethyl-morpholino)-benzoylamino)-äthyl]benzoesäure], the Tieren gestorben is on record as 0 von 10.

`CCOC(=O)c1ccc(CCNC(=O)c2cc(Br)ccc2N2CCCCCCC2)cc1` [V, 4-[2-(5-Brom-2-heptamethylenimino-benzoylamino)-äthyl]benzoesäure-äthylester] had a Tieren gestorben of 0 von 10.

In turn, `O=C(O)c1ccc(CCNC(=O)c2cc(Br)ccc2N2CCCCCCC2)cc1` [W, 4-[2-(5-Brom-2-heptamethylenimino-benzoylamino)-äthyl]-benzoesäure] came in with a Tieren gestorben of 0 von 6.

On to `O=C(O)c1ccc(CCNC(=O)c2cc(Cl)ccc2N2CCCCCCCC2)cc1` [X, 4-[2-(5-Chlor-2-octamethylenimino-benzoylamino)-äthyl]-benzoesäure], for which the Tieren gestorben is on record as 0 von 6.

The same series, now with this note: single dose of 2 000 mg/kg p.o., observation at least 7 days.
For `CN(C)c1ccc(Cl)cc1C(=O)NCCc1ccc(C(=O)O)cc1` [A, 4-[2-(5-Chlor-2-dimethylamino-benzoylamino)-äthyl]benzoe-säure], the Tieren gestorben is recorded as 0 von 6.

Consider `O=C(O)c1ccc(CCNC(=O)c2cc(Cl)ccc2N2CCCCC2)cc1` [D, 4-[2-(5-Chlor-2-piperidino-benzoylamino)-äthy]benzoesäure], for which the Tieren gestorben is on record as 0 von 6.

As for `O=C(O)c1cc(Cl)ccc1N1CCC2(CC1)OCCO2` [KK, 5-Chlor-2-(1,4-dioxa-8-aza-spiro[4,5]decan-8-yl)-benzoe-säure], the Tieren gestorben stood at 0 von 10.

Still in this series, the particulars now being: single dose p.o., suspension in 1% methylcellulose, observation at least 7 days.
On to `CN(C)c1ccc(Cl)cc1C(=O)NCCc1ccc(C(=O)O)cc1` [A, 4-[2-(5-Chlor-2-dimethylamino-benzoylamino)-äthyl]benzoe-säure], for which the “orientierende Toxizität” value is given as > 2 000 mg/kg.

As for `CN(C)c1ccc(Br)cc1C(=O)NCCc1ccc(C(=O)O)cc1` [B, 4-[2-(5-Brom-2-dimethylamino-benzoylamino)-äthyl]benzoesäure], the “orientierende Toxizität” value is on record as > 1 000 mg/kg.

Turning to `O=C(O)c1ccc(CCNC(=O)c2cc(Cl)ccc2N2CCCCC2)cc1` [D, 4-[2-(5-Chlor-2-piperidino-benzoylamino)-äthy]benzoesäure], the “orientierende Toxizität” value is on record as > 2 000 mg/kg.

As for `COC(=O)c1ccc(CCNC(=O)c2cc(Cl)ccc2N2CC(C)CC(C)C2)cc1` (centres unmarked) [H, 4-[2-(5-Chlor-2-(3,5-dimethyl-piperidino)-benzoylamino)-äthy]benzoesäure-methylester], the “orientierende Toxizität” value is given as > 1 000 mg/kg.

As for `O=C(O)c1cc(Cl)ccc1N1CCC2(CC1)OCCO2` [KK, 5-Chlor-2-(1,4-dioxa-8-aza-spiro[4,5]decan-8-yl)-benzoe-säure], the “orientierende Toxizität” value was > 2 000 mg/kg.

Consider `O=C(O)c1ccc(CCNC(=O)c2cc(Cl)ccc2N2CCCCCC2)cc1` [O, 4-[2-(5-Chlor-2-hexamethylenimino-benzoylamino)-äthyl]-benzoesäure], for which the “orientierende Toxizität” value is given as > 1 000 mg/kg.

On to `CC1CN(c2ccc(Cl)cc2C(=O)NCCc2ccc(C(=O)O)cc2)CC(C)O1` (centres unmarked) [T, 4-[-(5-Chlor-2-(2,6-dimethyl-morpholino)-benzoylamino)-äthyl]benzoesäure], for which the “orientierende Toxizität” value is > 1 000 mg/kg.

As for `CCOC(=O)c1ccc(CCNC(=O)c2cc(Br)ccc2N2CCCCCCC2)cc1` [V, 4-[2-(5-Brom-2-heptamethylenimino-benzoylamino)-äthyl]benzoesäure-äthylester], the “orientierende Toxizität” value was > 1 000 mg/kg.

Consider `O=C(O)c1ccc(CCNC(=O)c2cc(Br)ccc2N2CCCCCCC2)cc1` [W, 4-[2-(5-Brom-2-heptamethylenimino-benzoylamino)-äthyl]-benzoesäure], for which the “orientierende Toxizität” value is > 1 000 mg/kg.

As to `O=C(O)c1ccc(CCNC(=O)c2cc(Cl)ccc2N2CCCCCCCC2)cc1` [X, 4-[2-(5-Chlor-2-octamethylenimino-benzoylamino)-äthyl]-benzoesäure], the “orientierende Toxizität” value is reported as > 1 000 mg/kg.

(Values after EP0023569A1, “Derivatives of carboxylic acids, their preparation and medicaments containing them” (Dr. Karl Thomae GmbH, priority 1979, dated 1981).)
